Assay [1] concerns the target T1, wild-type EGFR (Homo sapiens, UniProt P00533).
T1 construct: purchased Signalchem
The assay can be described thus: Enzymology experiment in vitro (HTRF/FRET kinase activity), wild-type EGFR. It is filed as biochemical. To be noted: HTRF KinEASE-TK, read-out: EGFR (WT) IC50. As to the method:
(§1) 1. Experimental Materials
(§2) HTRF KinEASE-TK kit detection reagent, purchased from Cisbio
(§3) 1) 10 nL of gradient diluted compound was transferred into a 384-well experimental plate using Echo 550 (Labcyte).
(§4) 2) 5 μL of 2×EGFR enzyme solution was added to the 384-well experimental plate and incubated at room temperature for 10 minutes.
(§5) 3) 5 μL of 2× substrate solution containing polypeptide and ATP was added to the 384-well experimental plate and incubated at room temperature for 40 minutes.
(§6) 4) 10 μL of detection solution containing EDTA, XL665-labeled streptavidin and Eu^3+-labeled antibody was added thereto and incubated at room temperature for 1 hour.

Assay [2] addresses T2, L858R/T790M/C797S triple mutant EGFR (Homo sapiens, UniProt P00533, C797S/L858R/T790M).
T2 construct: purchased Signalchem
The assay can be described thus: Enzymology experiment in vitro (HTRF/FRET kinase activity), L858R/T790M/C797S triple mutant EGFR. It is filed as biochemical. The conditions noted are these: HTRF KinEASE-TK, read-out: EGFR (L858R/T790M/C797S) IC50. The protocol: as §1, §2, §3, §4, §5, §6

Assay [3] concerns EGFR wild-type cell line A431. The assay can be described thus: Cell proliferation inhibition experiment (CellTiter-Glo), A431. The conditions noted are these: Homo sapiens, A-431, 72 h, A431 cells, Cell Titer-Glo, read-out: A431 EGFR WT IC50. It is filed as cell-based. The protocol: A431 cells, purchased from ATCC.
1) A431 cells were inoculated in a 384-well culture plate at a density of 800 cells per well, 30 μL per well, placed in a cell incubator, and cultured for 24 hours (37° C., 5% CO2).
(§7) 3) 30 nL of gradient diluted compound was transferred into the 384-well experimental plate using Echo 550 (Labcyte) at a DMSO final concentration of 0.1%, and the culture plate was incubated in a cell incubator for 72 hours (37° C., 5% CO2).
(§8) 4) 30 μL of Cell Titer-Glo reagent was added to each well and left for 30 minutes at room temperature and protected from light.
(§9) 5) Envision microplate reader (PerkinElmer) detected chemiluminescence signals.
(§10) 6) GraphPad Prism 8 software was used for data analysis to obtain the IC50 of the compounds of the present disclosure and the positive control.

Assay [4] concerns the target Ba/F3 De119/T790M/C797S EGFR triple mutant cell line (Homo sapiens, UniProt P00533, T790M/C797S, cells depend on it, form not given). The assay can be described thus: Cell proliferation inhibition experiment (CellTiter-Glo), Ba/F3 De119/T790M/C797S. It is filed as cell-based. The conditions noted are these: Ba/F3 Del19/T790M/C797S EGFR triple mutant cells, 72 hours, Cell Titer-Glo; read-out: Ba/F3 (Del19/T790M/C797S) IC50. As to the method: as §7, §8, §9, §10

In assay [5] the target is Ba/F3 L858R/T790M/C797S EGFR triple mutant cell line (Homo sapiens, UniProt P00533, T790M/C797S/L858R, cells depend on it). As to the kind of experiment: Cell proliferation inhibition experiment (CellTiter-Glo), Ba/F3 L858R/T790M/C797S. It counts as cell-based. To be noted: 72 hours, Cell Titer-Glo, read-out: Ba/F3 (L858R/T790M/C797S) IC50. As to the method:
as §7, §8, §9, §10

SMILES strings stand for the structures. pIC50: −log10 of the molar value.

Chain of Ba/F3 L858R/T790M/C797S EGFR triple mutant cell line (P00533 whole entry T790M/C797S/L858R): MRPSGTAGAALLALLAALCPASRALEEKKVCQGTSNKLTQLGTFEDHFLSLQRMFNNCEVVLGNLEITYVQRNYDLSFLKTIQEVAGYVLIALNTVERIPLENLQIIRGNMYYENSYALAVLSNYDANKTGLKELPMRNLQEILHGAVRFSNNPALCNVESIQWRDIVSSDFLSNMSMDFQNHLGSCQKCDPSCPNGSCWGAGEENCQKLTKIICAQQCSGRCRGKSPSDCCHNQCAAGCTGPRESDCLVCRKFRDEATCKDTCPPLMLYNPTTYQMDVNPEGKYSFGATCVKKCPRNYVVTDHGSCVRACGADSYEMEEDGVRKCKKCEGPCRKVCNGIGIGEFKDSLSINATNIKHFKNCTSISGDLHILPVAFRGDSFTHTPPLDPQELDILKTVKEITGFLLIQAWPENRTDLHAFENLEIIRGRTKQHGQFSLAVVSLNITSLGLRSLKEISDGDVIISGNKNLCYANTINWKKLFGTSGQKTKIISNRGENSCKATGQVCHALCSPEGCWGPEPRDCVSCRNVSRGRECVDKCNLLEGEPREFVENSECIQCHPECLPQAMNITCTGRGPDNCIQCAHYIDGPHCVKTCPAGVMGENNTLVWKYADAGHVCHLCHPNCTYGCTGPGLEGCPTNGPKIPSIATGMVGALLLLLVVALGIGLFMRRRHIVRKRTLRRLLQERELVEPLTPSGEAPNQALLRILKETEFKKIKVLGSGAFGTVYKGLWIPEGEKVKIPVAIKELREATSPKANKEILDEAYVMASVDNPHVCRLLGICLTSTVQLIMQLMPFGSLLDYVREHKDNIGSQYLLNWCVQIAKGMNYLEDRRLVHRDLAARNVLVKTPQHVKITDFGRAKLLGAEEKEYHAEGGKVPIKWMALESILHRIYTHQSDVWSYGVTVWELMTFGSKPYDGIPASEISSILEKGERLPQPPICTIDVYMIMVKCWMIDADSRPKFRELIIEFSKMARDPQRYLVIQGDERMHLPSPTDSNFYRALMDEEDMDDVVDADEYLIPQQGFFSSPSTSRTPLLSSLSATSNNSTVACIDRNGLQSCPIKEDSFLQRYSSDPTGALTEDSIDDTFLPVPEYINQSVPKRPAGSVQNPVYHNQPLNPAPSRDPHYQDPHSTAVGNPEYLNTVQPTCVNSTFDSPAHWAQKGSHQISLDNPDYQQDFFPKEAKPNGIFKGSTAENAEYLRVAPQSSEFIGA
T2 sequence (P00533 25-1210 T790M/C797S/L858R): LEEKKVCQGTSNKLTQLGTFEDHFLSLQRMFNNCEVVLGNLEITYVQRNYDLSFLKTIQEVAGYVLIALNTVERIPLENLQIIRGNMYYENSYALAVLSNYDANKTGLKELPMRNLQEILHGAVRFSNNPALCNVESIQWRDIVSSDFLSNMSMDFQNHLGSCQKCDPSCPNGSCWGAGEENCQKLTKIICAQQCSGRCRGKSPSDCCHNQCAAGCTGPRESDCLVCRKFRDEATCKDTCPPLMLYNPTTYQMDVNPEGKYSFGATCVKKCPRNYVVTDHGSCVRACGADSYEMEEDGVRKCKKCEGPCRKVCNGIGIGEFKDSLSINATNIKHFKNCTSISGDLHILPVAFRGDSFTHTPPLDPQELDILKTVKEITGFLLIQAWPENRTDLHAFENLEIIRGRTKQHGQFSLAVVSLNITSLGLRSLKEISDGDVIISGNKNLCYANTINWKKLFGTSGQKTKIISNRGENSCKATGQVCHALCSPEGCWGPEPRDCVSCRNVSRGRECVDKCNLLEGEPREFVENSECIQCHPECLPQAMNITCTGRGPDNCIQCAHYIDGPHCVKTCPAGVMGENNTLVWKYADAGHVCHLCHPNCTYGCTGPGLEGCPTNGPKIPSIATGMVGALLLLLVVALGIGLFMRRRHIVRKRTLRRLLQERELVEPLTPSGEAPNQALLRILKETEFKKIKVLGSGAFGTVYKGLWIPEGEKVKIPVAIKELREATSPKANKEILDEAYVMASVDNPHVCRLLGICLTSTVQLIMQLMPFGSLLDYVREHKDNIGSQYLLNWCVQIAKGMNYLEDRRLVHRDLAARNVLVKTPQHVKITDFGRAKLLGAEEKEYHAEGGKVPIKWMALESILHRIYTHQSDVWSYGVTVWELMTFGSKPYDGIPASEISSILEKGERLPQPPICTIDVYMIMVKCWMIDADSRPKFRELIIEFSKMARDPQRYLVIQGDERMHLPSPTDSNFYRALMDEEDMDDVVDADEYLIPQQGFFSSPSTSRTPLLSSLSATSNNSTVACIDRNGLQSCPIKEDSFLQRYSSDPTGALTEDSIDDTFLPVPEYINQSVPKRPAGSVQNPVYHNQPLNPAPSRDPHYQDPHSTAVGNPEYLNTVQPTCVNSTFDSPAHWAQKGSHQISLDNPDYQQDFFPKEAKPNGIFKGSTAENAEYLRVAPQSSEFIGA
T1 sequence (P00533 25-1210): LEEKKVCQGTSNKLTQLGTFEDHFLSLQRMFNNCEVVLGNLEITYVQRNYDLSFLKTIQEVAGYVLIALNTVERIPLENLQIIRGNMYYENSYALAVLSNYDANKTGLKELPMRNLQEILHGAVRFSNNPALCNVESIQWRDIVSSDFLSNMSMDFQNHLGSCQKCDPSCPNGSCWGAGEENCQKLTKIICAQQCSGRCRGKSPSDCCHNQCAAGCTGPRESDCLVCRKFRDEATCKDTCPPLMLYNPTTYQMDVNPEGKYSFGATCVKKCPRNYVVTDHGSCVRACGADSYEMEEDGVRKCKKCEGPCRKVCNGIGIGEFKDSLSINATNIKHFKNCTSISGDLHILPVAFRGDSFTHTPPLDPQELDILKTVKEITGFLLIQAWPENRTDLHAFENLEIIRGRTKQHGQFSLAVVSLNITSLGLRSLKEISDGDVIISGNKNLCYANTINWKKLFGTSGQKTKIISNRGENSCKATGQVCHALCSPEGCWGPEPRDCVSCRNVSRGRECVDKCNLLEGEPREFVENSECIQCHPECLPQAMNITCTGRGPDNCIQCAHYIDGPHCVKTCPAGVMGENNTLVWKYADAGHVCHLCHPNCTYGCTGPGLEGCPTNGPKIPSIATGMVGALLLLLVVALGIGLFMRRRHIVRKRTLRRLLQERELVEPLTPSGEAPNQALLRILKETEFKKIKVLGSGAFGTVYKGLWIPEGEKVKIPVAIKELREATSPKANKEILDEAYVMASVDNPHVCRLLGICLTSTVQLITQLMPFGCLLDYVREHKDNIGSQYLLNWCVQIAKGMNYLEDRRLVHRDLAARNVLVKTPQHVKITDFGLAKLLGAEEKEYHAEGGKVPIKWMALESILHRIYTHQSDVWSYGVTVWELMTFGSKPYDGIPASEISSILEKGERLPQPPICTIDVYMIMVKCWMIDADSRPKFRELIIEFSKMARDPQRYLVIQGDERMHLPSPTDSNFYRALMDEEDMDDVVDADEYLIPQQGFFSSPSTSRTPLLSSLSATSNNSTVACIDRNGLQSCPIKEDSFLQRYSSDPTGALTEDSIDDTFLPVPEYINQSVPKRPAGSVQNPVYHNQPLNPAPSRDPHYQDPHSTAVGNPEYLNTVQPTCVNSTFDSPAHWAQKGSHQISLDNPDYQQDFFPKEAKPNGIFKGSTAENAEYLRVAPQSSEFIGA
Chain of Ba/F3 De119/T790M/C797S EGFR triple mutant cell line (P00533 with tags, fused parts or gaps DEL746-750/T790M/C797S, form open): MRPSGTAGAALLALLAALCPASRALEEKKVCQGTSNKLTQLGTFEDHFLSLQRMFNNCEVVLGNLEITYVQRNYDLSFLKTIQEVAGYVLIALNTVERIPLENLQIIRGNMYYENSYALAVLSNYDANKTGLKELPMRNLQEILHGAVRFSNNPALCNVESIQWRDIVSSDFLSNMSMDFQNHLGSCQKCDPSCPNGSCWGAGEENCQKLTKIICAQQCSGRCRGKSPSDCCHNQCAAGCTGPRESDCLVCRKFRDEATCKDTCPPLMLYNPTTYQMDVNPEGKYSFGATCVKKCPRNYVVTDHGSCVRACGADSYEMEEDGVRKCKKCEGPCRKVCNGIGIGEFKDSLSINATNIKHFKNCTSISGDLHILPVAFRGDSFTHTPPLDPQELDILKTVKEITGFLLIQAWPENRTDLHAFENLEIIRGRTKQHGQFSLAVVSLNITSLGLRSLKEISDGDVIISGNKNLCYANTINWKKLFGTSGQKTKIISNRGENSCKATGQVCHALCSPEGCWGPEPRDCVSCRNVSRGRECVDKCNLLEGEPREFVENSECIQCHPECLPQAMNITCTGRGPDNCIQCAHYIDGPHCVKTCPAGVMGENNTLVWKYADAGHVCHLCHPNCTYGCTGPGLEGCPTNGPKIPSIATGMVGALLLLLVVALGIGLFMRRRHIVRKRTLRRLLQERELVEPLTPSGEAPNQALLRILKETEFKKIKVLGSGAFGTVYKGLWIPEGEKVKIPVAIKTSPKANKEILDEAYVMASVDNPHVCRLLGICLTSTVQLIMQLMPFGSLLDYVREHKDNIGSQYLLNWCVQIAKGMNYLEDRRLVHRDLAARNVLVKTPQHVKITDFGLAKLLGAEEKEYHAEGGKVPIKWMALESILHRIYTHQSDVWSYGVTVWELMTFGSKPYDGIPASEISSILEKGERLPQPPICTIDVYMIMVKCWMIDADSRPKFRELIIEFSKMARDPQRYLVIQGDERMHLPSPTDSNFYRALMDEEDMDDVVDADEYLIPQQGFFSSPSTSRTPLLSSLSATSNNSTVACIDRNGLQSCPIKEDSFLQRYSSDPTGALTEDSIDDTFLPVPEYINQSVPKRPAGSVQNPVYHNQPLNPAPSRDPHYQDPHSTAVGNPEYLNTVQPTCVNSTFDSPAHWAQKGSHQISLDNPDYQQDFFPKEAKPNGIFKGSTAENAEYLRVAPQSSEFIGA

Take `COc1cc(N2CCOCC2)c(-c2cn[nH]c2)cc1Nc1ncc(C)c(Nc2ccc3nccnc3c2P(C)(C)=O)n1` [compound 97]: the values for the pIC50 in assay [1], in assay [2] and in assay [3] were 8.99, 9.82 and 6.39, respectively. For the same compound, the GI50 in assay [4] was 6.64 nM; in assay [5], 25.5 nM.
Consider `[2H]C([2H])([2H])N(c1cc(OC)c(Nc2ncc(C)c(Nc3ccc4nccnc4c3P(C)(C)=O)n2)cc1-c1cnn(C)c1)C([2H])([2H])[2H]` [compound 143], for which the pIC50 in assay [1] is 8.76; in assay [2], 9.39; in assay [3], 6.38. The values for the GI50 in assay [4] and in assay [5] were 3.23 nM and 10.2 nM, respectively.
Consider `COc1cc(N2CCC3(CC2)CCN(C(C)CF)CC3)c(-c2cnn(C)c2)cc1Nc1ncc(Br)c(Nc2ccc3nccnc3c2P(C)(C)=O)n1` (centres unmarked) [compound 246], for which the pIC50 is 8.98 in assay [1], 9.40 in assay [2] and 6.89 in assay [3]. Besides, the figures for the GI50 in assay [4] and in assay [5] were 2.59 nM and 3.64 nM, respectively.
Consider `COc1cc(N2CCOCC2)c(-c2cnn(C)c2)cc1Nc1ncc(Br)c(Nc2cc(C)c3nccnc3c2P(C)(C)=O)n1` [Compound 33, (6-((5-bromo-2-((2-methoxy-5-(1-methyl-1H-pyrazol-4-yl)-4-morpholinylphenyl)amino)pyrimidin-4-yl)amino)-8-methylquinoxalin-5-yl)dimethylphosphine oxide], for which the pIC50 in assay [1] was 7.30; in assay [2], 9.59; in assay [3] it was 5.85. In addition, the results for the GI50 in assay [4] and in assay [5] were 10.1 nM and 32.5 nM, respectively.
Consider `COc1cc(N2CC(C)OC(C)C2)c(-c2cnn(C)c2)cc1Nc1ncc(Br)c(Nc2ccc3nccnc3c2P(C)(C)=O)n1` (single isomer, unassigned) [155a], for which the results for the pIC50 in assay [1], in assay [2] and in assay [3] were 7.56, 9.17 and 6.49, respectively. In addition, the GI50 in assay [4] amounted to 2.98 nM; in assay [5] it was 15.6 nM.
The like results for `COc1cc(N2CCN(CC3CC3)CC2)c(-c2cnn(C)c2)cc1Nc1ncc(Br)c(Nc2ccc3cncnc3c2P(C)(C)=O)n1` [compound 236] were, in that order, 7.96, 9.68, 7.04, 5.45 nM and 12.7 nM.
Take `COc1cc(N2CCC3(CC2)CN(C(C)C)CCO3)c(-c2cnn(C)c2)cc1Nc1ncc(Br)c(Nc2ccc3nccnc3c2P(C)(C)=O)n1` [compound 202]: the pIC50 in assay [1] is 8.43; in assay [2] it was 9.23; in assay [3] it was 7.04. Moreover, the GI50 turned out to be 2.93 nM in assay [4] and 3.75 nM in assay [5].
The like results for `COc1cc(N2CCC3CCN(CCF)C3C2)c(-c2cnn(C)c2)cc1Nc1ncc(Br)c(Nc2ccc3nccnc3c2P(C)(C)=O)n1` (centres unmarked) [compound 205, (6-((5-Bromo-2-((4-(1-(2-fluoroethyl)octahydro-6H-pyrrolo[2,3-c]pyridin-6-yl)-2-methoxy-5-(1-methyl-1H-pyrazol-4-yl)phenyl)amino)pyrimidin-4-yl)amino)quinoxalin-5-yl)dimethylphosphine oxide] were, in that order, 8.51, 9.46, 6.93, 3.2 nM and 8.9 nM.
Turning to `COc1cc(N2CCOCC2)c(-c2cccs2)cc1Nc1ncc(Br)c(Nc2ccc3nccnc3c2P(C)(C)=O)n1` [compound 83], the pIC50 in assay [1] was 6.00; in assay [2], 8.40; in assay [3], 5.62. In addition, the GI50 is 34 nM in assay [4] and 58.9 nM in assay [5].
Turning to `COc1cc(N2CCC3C(C2)CN3C)c(-c2cnn(C)c2)cc1Nc1ncc(Br)c(Nc2ccc3nccnc3c2P(C)(C)=O)n1` (racemic) [compound 221], the pIC50 in assay [1] is 8.86; in assay [2], 10.05; in assay [3], 7.58. Also, the figures for the GI50 in assay [4] and in assay [5] were 2.41 nM and 2.79 nM, respectively.
In the case of `COc1cc(C(=O)N(C)C)c(-c2cnn(C)c2)cc1Nc1ncc(Br)c(Nc2ccc3nccnc3c2P(C)(C)=O)n1` [compound 40], the pIC50 in assay [1] is 7.26; in assay [2] it was 8.55; in assay [3] it was 5.93. For the same compound, the values for the GI50 in assay [4] and in assay [5] were 1130 nM and 542 nM, respectively.
As for `COc1cc(C2CCOCC2)c(-c2cnn(C)c2)cc1Nc1ncc(Br)c(Nc2ccc3nccnc3c2P(C)(C)=O)n1` [Compound 69], the pIC50 was 7.76 in assay [1], 9.77 in assay [2] and 6.52 in assay [3]. For the same compound, the GI50 in assay [4] was found to be 5.91 nM; in assay [5], 19.2 nM.
As for `COc1cc(F)c(-c2cnn(C)c2)cc1Nc1ncc(Br)c(Nc2ccc3nccnc3c2P(C)(C)=O)n1` [compound 84], the figures for the pIC50 in assay [1], in assay [2] and in assay [3] were 7.78, 9.48 and 6.41, respectively. The GI50 in assay [4] was determined as 12.5 nM; in assay [5], 20.7 nM.
For the compound `COc1cc(N2CCC3(CCN(CCF)CC3)CC2)c(-c2cnn(C)c2)cc1Nc1ncc(Br)c(Nc2ccc3ncccc3c2P(C)(C)=O)n1` [compound 238], the pIC50 in assay [1] is 8.52; in assay [2], 9.52; in assay [3], 7.21. Further, the figures for the GI50 in assay [4] and in assay [5] were 1.83 nM and 3.59 nM, respectively.
With `COCCN1CCN(c2cc(OC)c(Nc3ncc(Br)c(Nc4ccc5nccnc5c4P(C)(C)=O)n3)cc2-c2cnn(C)c2)CC1` [compound 92], the pIC50 is 8.63 in assay [1], 10.52 in assay [2] and 7.50 in assay [3]. Besides, the GI50 in assay [4] is 0.54 nM; in assay [5] it was 2.85 nM.
The like results for `COc1cc(N2CCN(CC3COC3)CC2)c(-c2cnn(C)c2)cc1Nc1ncc(Br)c(Nc2ccc3nccnc3c2P(C)(C)=O)n1` [compound 219, (6-((5-Bromo-2-((2-methoxy-5-(1-methyl-1H-pyrazol-4-yl)-4-(4-(oxetan-3-ylmethyl)piperazin-1-yl)phenyl)amino)pyrimidin-4-yl)amino)quinoxalin-5-yl)dimethylphosphine oxide] were, in that order, 8.78, 9.92, 7.49, 1.1 nM and 1.08 nM.
As for `COc1cc(N2CCC(N3CCN(C)C(C)C3)CC2)c(-c2cnn(C)c2)cc1Nc1ncc(Br)c(Nc2ccc3nccnc3c2P(C)(C)=O)n1` (centres unmarked) [compound 193], the pIC50 is 9.00 in assay [1], 9.57 in assay [2] and 7.22 in assay [3]. The GI50 in assay [4] amounted to 4.48 nM; in assay [5] it was 9.83 nM.
The like results for `COc1cc(N2CCN(C(=O)C3CC3)CC2)c(-c2cnn(C)c2)cc1Nc1ncc(Br)c(Nc2ccc3nccnc3c2P(C)(C)=O)n1` [compound 116] were, in that order, 8.50, 8.88, 6.77, 2.25 nM and 8.15 nM.
Take `COc1cc(N2CCOCC2)c(-c2cnn(C)c2)cc1Nc1nc(Nc2ccccc2P(C)(C)=O)c2ccccc2n1` [compound 3]: the results for the pIC50 in assay [1], in assay [2] and in assay [3] were 5.90, 7.66 and 5.65, respectively. Moreover, the GI50 in assay [4] was 281 nM; in assay [5], 444 nM.
As to `COc1cc(N2CCC(N3CC(F)C3)CC2)c(-c2cnn(C)c2)cc1Nc1ncc(Br)c(Nc2ccc3nccnc3c2P(C)(C)=O)n1` [compound 159], the figures for the pIC50 in assay [1], in assay [2] and in assay [3] were 8.81, 9.15 and 6.94, respectively. Also, the values for the GI50 in assay [4] and in assay [5] were 0.93 nM and 4.11 nM, respectively.
Regarding `COc1cc(N2CCC(N3CCN(C)CC3)CC2)c(-c2cnn(C)c2)cc1Nc1ncc(Br)c(Nc2ccccc2N(C)S(=O)(=O)C2CC2)n1` [compound 190], the pIC50 in assay [1] is 8.36; in assay [2], 9.28; in assay [3], 6.71. Further, the GI50 was 4.16 nM in assay [4] and 8.69 nM in assay [5].
Turning to `COc1cc(N2CCC(N3CCN(C)CC3)CC2)c(-c2cnn(C)c2)cc1Nc1ncc(Br)c(Nc2ccc3nccnc3c2P(C)(C)=O)n1` [compound 18], the pIC50 in assay [1] was 8.90; in assay [2] it was 10.10; in assay [3] it was 7.34. Also, the GI50 is 2.87 nM in assay [4] and 20.9 nM in assay [5].

Source of the values: US20230219986A1, “NOVEL AMINOPYRIMIDINE EGFR INHIBITOR” (QILU PHARMACEUTICAL CO., LTD., priority 2020, published 2023).
